Data from paper PMC9516332 (Frontiers in Oncology, 2022).
Read-outs that look alike come from different tables or passages of the source.

Tested on: 134 cancer cell lines
Test: Cell viability assay (ATPlite, 72 hours), IC50 on cancer cell line panel

O=C(c1ccc(F)c(F)c1Nc1ccc(I)cc1F)N1CC(O)([C@@H]2CCCCN2)C1 [cobimetinib]
IC50 (HEC-6, read-out: IC50 in cell proliferation assay, HEC-6 cell line (EGFR p.A289V)): 164 nM
IC50 (Homo sapiens, 769-P, read-out: IC50 in cell proliferation assay, cell line 769-P): 423 nM
IC50 (Homo sapiens, 786-0, read-out: IC50 in cell proliferation assay, cell line 786-O): 205 nM
IC50 (Homo sapiens, A 172, read-out: IC50 in cell proliferation assay, cell line A-172): 218 nM
IC50 (Homo sapiens, A204, read-out: IC50 in cell proliferation assay, cell line A-204): 900 nM
IC50 (Homo sapiens, A498, read-out: IC50 in cell proliferation assay, cell line A-498): 3910 nM
IC50 (Homo sapiens, A549, read-out: IC50 in cell proliferation assay, cell line A-549): 255 nM
IC50 (Homo sapiens, A704, read-out: IC50 in cell proliferation assay, cell line A-704): > 10000 nM
IC50 (Homo sapiens, A-375, read-out: IC50 in cell proliferation assay, cell line A-375 (BRAF p.V600E)): 13 nM
IC50 (Homo sapiens, A-427, read-out: IC50 in cell proliferation assay, cell line A-427): 72 nM
IC50 (Homo sapiens, ACHN, read-out: IC50 in cell proliferation assay, cell line ACHN): 104 nM
IC50 (Homo sapiens, AN3-CA, read-out: IC50 in cell proliferation assay, cell line AN3-CA (FGFR2 p.N549K)): 558 nM
IC50 (Homo sapiens, ASPC1, read-out: IC50 in cell proliferation assay, cell line AsPC-1): 61 nM
IC50 (Homo sapiens, AU565, read-out: IC50 in cell proliferation assay, cell line AU565 (ERBB2 amplification)): > 10000 nM
IC50 (Homo sapiens, BT-20, read-out: IC50 in cell proliferation assay, cell line BT-20): > 10000 nM
IC50 (Homo sapiens, BT-474, read-out: IC50 in cell proliferation assay, cell line BT-474 (ERBB2 amplification)): 5990 nM
IC50 (Homo sapiens, BT-549, read-out: IC50 in cell proliferation assay, cell line BT-549): 5720 nM
IC50 (Homo sapiens, BXPC-3, read-out: IC50 in cell proliferation assay, cell line BxPC-3): 10 nM
IC50 (Homo sapiens, C-33-A, read-out: IC50 in cell proliferation assay, cell line C-33 A): 43 nM
IC50 (Homo sapiens, CAL-27, read-out: IC50 in cell proliferation assay, cell line CAL-27): 63 nM
IC50 (Homo sapiens, CCF-STTG1, read-out: IC50 in cell proliferation assay, cell line CCF-STTG1): > 10000 nM
IC50 (Homo sapiens, CCRF-CEM, read-out: IC50 in cell proliferation assay, cell line CCRF-CEM): 8480 nM
IC50 (Homo sapiens, COLO 205, read-out: IC50 in cell proliferation assay, cell line COLO 205 (BRAF p.V600E)): 10 nM
IC50 (Homo sapiens, COLO-829, read-out: IC50 in cell proliferation assay, cell line COLO 829 (BRAF p.V600E)): 28 nM
IC50 (Homo sapiens, DLD-1, read-out: IC50 in cell proliferation assay, cell line DLD-1): 724 nM
IC50 (Homo sapiens, DU-4475, read-out: IC50 in cell proliferation assay, cell line DU4475 (BRAF p.V600E)): 17 nM
IC50 (Homo sapiens, Daoy, read-out: IC50 in cell proliferation assay, cell line Daoy): > 10000 nM
IC50 (Homo sapiens, DoTc2-4510, read-out: IC50 in cell proliferation assay, cell line DoTc2 4510): 42 nM
IC50 (Homo sapiens, EOL1, read-out: IC50 in cell proliferation assay, cell line EoL-1 (FIP1L1-PDGFRA)): 87 nM
IC50 (Homo sapiens, FaDu, read-out: IC50 in cell proliferation assay, cell line FaDu): 146 nM
IC50 (Homo sapiens, G-361, read-out: IC50 in cell proliferation assay, cell line G-361 (BRAF p.V600E)): 11 nM
IC50 (Homo sapiens, HCC827, read-out: IC50 in cell proliferation assay, cell line HCC827 (EGFR exon19del)): 321 nM
IC50 (Homo sapiens, HCC4006, read-out: IC50 in cell proliferation assay, cell line HCC4006 (EGFR exon19del)): 1280 nM
IC50 (Homo sapiens, HCT-15, read-out: IC50 in cell proliferation assay, cell line HCT 15): 3580 nM
IC50 (Homo sapiens, HCT-116, read-out: IC50 in cell proliferation assay, cell line HCT 116): 106 nM
IC50 (Homo sapiens, HEC-1, read-out: IC50 in cell proliferation assay, HEC-1 cell line): 368 nM
IC50 (Homo sapiens, HEC-1B, read-out: IC50 in cell proliferation assay, HEC-1-B cell line (EGFR p.A864V)): 13 nM
IC50 (Homo sapiens, HL-60, read-out: IC50 in cell proliferation assay, HL-60 cell line): 19 nM
IC50 (Homo sapiens, HT, read-out: IC50 in cell proliferation assay, HT cell line): > 10000 nM
IC50 (Homo sapiens, HT-1080, read-out: IC50 in cell proliferation assay, HT-1080 cell line): 68 nM
IC50 (Homo sapiens, Hs746T, read-out: IC50 in cell proliferation assay, Hs 746.T cell line (MET exon14skip + amplification)): 530 nM
IC50 (Homo sapiens, Hs-578T, read-out: IC50 in cell proliferation assay, Hs 578T cell line): 2220 nM
IC50 (Homo sapiens, HuTu80, read-out: IC50 in cell proliferation assay, HuTu 80 cell line): 319 nM
IC50 (Homo sapiens, J82, read-out: IC50 in cell proliferation assay, J82 cell line): 85 nM
IC50 (Homo sapiens, Jurkat E6.1, read-out: IC50 in cell proliferation assay, Jurkat E6.1 cell line): > 10000 nM
IC50 (Homo sapiens, K562, read-out: IC50 in cell proliferation assay, K-562 cell line): 73 nM
IC50 (Homo sapiens, KATO III, read-out: IC50 in cell proliferation assay, KATO III cell line (FGFR2 amplification)): 291 nM
IC50 (Homo sapiens, KG-1, read-out: IC50 in cell proliferation assay, KG-1 cell line (FGFR1OP2-FGFR1)): 26 nM
IC50 (Homo sapiens, KLE, read-out: IC50 in cell proliferation assay, KLE cell line): > 10000 nM
IC50 (Homo sapiens, KMS-11, read-out: IC50 in cell proliferation assay, KMS-11 cell line (FGFR3 p.Y373C)): 4120 nM
IC50 (Homo sapiens, KU812, read-out: IC50 in cell proliferation assay, Ku812 cell line): 64 nM
IC50 (Homo sapiens, Kasumi 1, read-out: IC50 in cell proliferation assay, Kasumi-1 cell line (KIT p.N822K)): 62 nM
IC50 (Homo sapiens, LC-2-ad, read-out: IC50 in cell proliferation assay, LC-2/ad cell line (CCDC6-RET)): 1190 nM
IC50 (Homo sapiens, LNCaP-Clone-FGC, read-out: IC50 in cell proliferation assay, LNCaP clone FGC cell line): 9640 nM
IC50 (Homo sapiens, LS174T, read-out: IC50 in cell proliferation assay, LS174T cell line): 25 nM
IC50 (Homo sapiens, LS-411N, read-out: IC50 in cell proliferation assay, LS411N cell line (BRAF p.V600E)): 21 nM
IC50 (Homo sapiens, LoVo, read-out: IC50 in cell proliferation assay, LoVo cell line): 118 nM
IC50 (Homo sapiens, MCF7, read-out: IC50 in cell proliferation assay, MCF-7 cell line): 8550 nM
IC50 (Homo sapiens, MDA-MB-231, read-out: IC50 in cell proliferation assay, MDA-MB-231 cell line): 192 nM
IC50 (Homo sapiens, MDA-MB-453, read-out: IC50 in cell proliferation assay, MDA-MB-453 cell line): 501 nM
IC50 (Homo sapiens, MDA-MB-468, read-out: IC50 in cell proliferation assay, MDA-MB-468 cell line): 248 nM
IC50 (Homo sapiens, MG-63, read-out: IC50 in cell proliferation assay, MG-63 cell line): 421 nM
IC50 (Homo sapiens, MIA PaCa-2, read-out: IC50 in cell proliferation assay, MIA PaCa-2 cell line): 68 nM
IC50 (Homo sapiens, MKN-45, read-out: IC50 in cell proliferation assay, MKN45 cell line (MET amplification)): 294 nM
IC50 (Homo sapiens, MOLM-13, read-out: IC50 in cell proliferation assay, MOLM-13 cell line (FLT3 ITD)): 172 nM
IC50 (Homo sapiens, MOLT-4, read-out: IC50 in cell proliferation assay, MOLT-4 cell line): > 10000 nM
